According to patent US8273724B2, “Melanoma antigens and their use in diagnostic and therapeutic methods” (The United States of America, as represented by the …, priority 1994, dated 2012):
Read-outs that look alike come from different tables or passages of the source. Where a SMILES comes first, the peptide text is derived from it.

Assays:
T2 cells = test: Induction of peptide specific CTL from PBL, 51Cr release against T2 cells with or without peptide (Example 5); type: cell-based, human; conditions: E:T = 3D40:1
Experimental: (§1) Induction of peptide specific CTL PBMC were separated from peripheral blood of HLA-A2+ melanoma patients and normal donors by centrifugation on Ficoll-Hypaque gradients and used as fresh or cryopreserved samples. […] Two days later, 12 IU/ml interleukin 2 (IL-2) (Chiron Co., Emeryville, Calif.) were added to the cultures. Lymphocytes were then restimulated weekly as follows: responder cells were harvested, washed once and replated in 24-well plates at a concentration of 2.5×10^5 cells/ml in CM. Autologous PBMC were thawed, washed twice in PBS, resuspended at 5-8×10^6 cells/ml in CM and pulsed with 1 ug/ml peptide in 15-ml conical tubes (5 ml/tube) for 3 hours at 37° C. These PBMC (stimulators) were then irradiated at 3000 rads, washed once in PBS and added to the responder cells at responder:stimulator ratios ranging between 1:3 and 1:10. The next day, 12 IU/ml IL-2 were added to the cultures. The activity of these CTL was tested by cytotoxicity assays after at least 2 rounds (14 days) of peptide stimulation. To generate CTL from TIL cultures, the dissociated tumor suspension were cultured for 1-2 days in 10% FCS RPMI-1640 medium to allow tumor cell adherence. The lymphocytes, recovered from the non-adherent fraction, were used for the induction of peptide specific CTL as described above.
(§2) Assessment of antigen recognition by CTL. ^51Cr release cytotoxic assays were performed to detect the recognition of peptide and melanoma cells by CTL. To analyze peptide recognition, T2 cell lines were preincubated for 2 h at 37° C. with 1 ug/ml peptide, washed and used as target cells in a ^51Cr release cytotoxic assay. The melanoma lines 624mel was established in our laboratory (See Example 1).

HLA-A2.1 [1] = target: T1, HLA-A2.1 (Homo sapiens, UniProt P04439, D140Y/D185E/D98H/E176V/E277Q/G131W/G231S/I119V/I121R/I166T/I218V/L300P/L318F/N151K/N90K/P208A/P217A/Q86G/Q94H/R138H/R169H/T345S); test: HLA-A2.1 binding assay of modified peptides, inhibition of radiolabeled Hbc 18-27 (Example 5)
[2] = test system: T2 cell lines preincubated with peptide; test: Recognition of modified peptides by natural epitope (M9-2, G9-154, G9-209, G9-280) reactive T-cells, 51Cr release on peptide-pulsed T2 cells (Example 5); type: cell-based, human
Outline: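 T2 target cells were pulsed with 1 ug/ml peptide for 2 h at 37° C., then washed. CTL recognition was measured by ^51Cr release cytotoxicity.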

[3] = test system: 624mel melanoma cell line; test: Induction of peptide specific CTL from PBL, 51Cr release against melanoma cells (Example 5); type: cell-based, human; conditions: for % specific lysis by PBL stimulated with the peptide: target 624mel, E:T = 3D40:1, after 4 stimulations (Table 20)
Experimental: as §1, §2

HLA-A2.1 [4] = target: T1, HLA-A2.1; test: Peptide binding assay to HLA-A2.1, competition with radiolabeled HBc18-27 (Example 4)
HLA-A2.1+ T2 cells = conditions: for TIL that recognize the peptide: cytotoxicity assays, T2 preincubated with peptide
[5] = test system: T2 cells preincubated with peptides; test: IFN-γ / cytokine release by TIL incubated with T2 cells preincubated with peptides; type: cell-based, human; conditions: T2 cells preincubated with peptide; data not shown
[6] = target T2 + G9-280-9V, after 4 stimulations
[7] = target T2 + G9-280, after 4 stimulations
[8] = target T2, after 4 stimulations (Table 20)
[9] = Exp. 1, peptide 1 ug/ml, TIL 620-1
[10] = Exp. 1, peptide 1 ug/ml, TIL 620-2
[11] = Exp. 1, peptide 1 ug/ml, TIL 660-1
[12] = Exp. 1, peptide 1 ug/ml, TIL 1143
[13] = Exp. 1, peptide 1 ug/ml, TIL 1200
[14] = Exp. 1, peptide 1 ug/ml, TIL 1235
[15] = Exp. 3, peptide 1 ug/ml, TIL 660-3
[16] = Exp. 3, peptide 1 ug/ml, TIL 1143
[17] = Exp. 3, peptide 1 ug/ml, TIL 1200
[18] = Exp. 3, peptide 1 ug/ml, TIL 1235

Q: CC(C)C[C@H](NC(=O)[C@@H](N)Cc1ccc(O)cc1)C(=O)N[C@@H](CCC(=O)O)C(=O)N1CCC[C@H]1C(=O)NCC(=O)N1CCC[C@H]1C(=O)N[C@H](C(=O)N[C@H](C(=O)O)[C@@H](C)O)C(C)C [G9-280-9V] (H-YLEPGPVT-OH; N-terminus and C-terminus assumed) was tested. Which “% specific lysis by PBL stimulated with the peptide” value (from here on “% specific lysis by PBL stimulated”) (T2 cells; [6]) did it give?
A: 58%

Q: What about the “% specific lysis by PBL stimulated” value (T2 cells; [7]) of the same compound?
A: 87%

Q: And the “% specific lysis by PBL stimulated” value (T2 cells; [8])?
A: 0%

Q: And the “binding affinity to HLA-A2.1 compared with the natural epitope” value (HLA-A2.1 [1])?
A: higher binding affinity

Q: And the “recognition by the original melanoma reactive T-cells” value [2]?
A: recognized

Q: And the “Recognition by G9-280 reactive T-cell” value ([2]; 51Cr release, T2 cells preincubated with 1 ug/ml peptide)?
A: + (+, recognized)

Q: And the “recognition and lysis of original epitopes and melanoma tumor cells (624 mel) by PBL stimulated with the peptide, compared with natural epitopes” value ([3]; PBL stimulated with autologous PBMC pulsed with peptide)?
A: better

Q: And the “% specific lysis by PBL stimulated” value [3]?
A: 71%

Q: Which IC50 (HLA-A2.1 [4]) does the source give for CC(C)C[C@H](NC(=O)[C@H](CCCNC(=N)N)NC(=O)[C@H](CC(C)C)NC(=O)[C@@H](NC(=O)[C@H](C)NC(=O)[C@@H](NC(=O)CNC(=O)[C@H](CC(=O)O)NC(=O)[C@H](CC(C)C)NC(=O)[C@@H](N)CC(C)C)[C@@H](C)O)[C@@H](C)O)C(=O)O [G10-4] here?
A: 483 nM

Q: What does the source list for CC(C)C[C@H](NC(=O)[C@@H](N)C(C)C)C(=O)N[C@@H](Cc1ccc(O)cc1)C(=O)N[C@@H](CCCNC(=N)N)C(=O)N[C@@H](Cc1ccc(O)cc1)C(=O)NCC(=O)N[C@@H](CO)C(=O)N[C@@H](Cc1ccccc1)C(=O)N[C@@H](CO)C(=O)N[C@H](C(=O)O)C(C)C [G10-5] (H-VLYRYGSFSV-OH; N-terminus and C-terminus assumed)?
A: lysis of T2 cells preincubated with the peptide (HLA-A2.1+ T2 cells): repeatedly low; % specific lysis at E:T = 40:1 (HLA-A2.1+ T2 cells; [9]): 2%; % specific lysis at E:T = 40:1 (HLA-A2.1+ T2 cells; [10]): 7%; % specific lysis at E:T = 40:1 (HLA-A2.1+ T2 cells; [11]): 2%; % specific lysis at E:T = 40:1 (HLA-A2.1+ T2 cells; [12]): 1%; % specific lysis at E:T = 40:1 (HLA-A2.1+ T2 cells; [13]): 7%; % specific lysis at E:T = 40:1 (HLA-A2.1+ T2 cells; [14]): 0%; % specific lysis at E:T = 40:1 (HLA-A2.1+ T2 cells; [15]): 14%; % specific lysis at E:T = 40:1 (HLA-A2.1+ T2 cells; [16]): 2%; % specific lysis at E:T = 40:1 (HLA-A2.1+ T2 cells; [17]): 6%; % specific lysis at E:T = 40:1 (HLA-A2.1+ T2 cells; [18]): 5%; TIL that recognize the peptide (HLA-A2.1+ T2 cells): TIL660-3 also recognized; IC50 (HLA-A2.1 [4]; binding to HLA-A2.1): 13 nM; Ratio to Standard: binding affinity of the sample peptide to that of the standard peptide (HLA-A2.1 [4]; standard peptide 50% inhibition at 5 nM): 0.38

Q: Which “% specific lysis by PBL stimulated” value (T2 cells; [6]) does the source give for CC(C)C[C@H](NC(=O)[C@@H](N)Cc1ccc(O)cc1)C(=O)N[C@@H](CCC(=O)O)C(=O)N1CCC[C@H]1C(=O)NCC(=O)N1CCC[C@H]1C(=O)N[C@H](C(=O)N[C@H](C(=O)N[C@@H](C)C(=O)O)[C@@H](C)O)C(C)C [G9280] here?
A: 8%

Q: And the “% specific lysis by PBL stimulated” value (T2 cells; [7])?
A: 11%

Q: And the “% specific lysis by PBL stimulated” value (T2 cells; [8])?
A: 3%

Q: And the “number of gp100 reactive TIL recognizing the peptide” value (HLA-A2.1+ T2 cells; 4 gp100 reactive TIL from different patients)?
A: 2 of 4

Q: And the “% specific lysis at E:T = 40:1” value (HLA-A2.1+ T2 cells; [9])?
A: 2%

Q: What about the “% specific lysis at E:T = 40:1” value (HLA-A2.1+ T2 cells; [10]) of the same compound?
A: 7%

Q: And the “% specific lysis at E:T = 40:1” value (HLA-A2.1+ T2 cells; [11])?
A: 43%

Q: And the “% specific lysis at E:T = 40:1” value (HLA-A2.1+ T2 cells; [12])?
A: 11%

Q: What about the “% specific lysis at E:T = 40:1” value (HLA-A2.1+ T2 cells; [13]) of the same compound?
A: 0%

Q: What about the “% specific lysis at E:T = 40:1” value (HLA-A2.1+ T2 cells; [14]) of the same compound?
A: 0%

Q: And the “% specific lysis at E:T = 40:1” value (HLA-A2.1+ T2 cells; Exp. 2, peptide 1 ng/ml, TIL 620-1)?
A: 2%

Q: And the “% specific lysis at E:T = 40:1” value (HLA-A2.1+ T2 cells; Exp. 2, peptide 1 ng/ml, TIL 620-2)?
A: 9%

Q: And the “% specific lysis at E:T = 40:1” value (HLA-A2.1+ T2 cells; Exp. 2, peptide 1 ng/ml, TIL 660-2)?
A: 75%

Q: And the “% specific lysis at E:T = 40:1” value (HLA-A2.1+ T2 cells; Exp. 2, peptide 1 ng/ml, TIL 1143)?
A: 34%

Q: And the “% specific lysis at E:T = 40:1” value (HLA-A2.1+ T2 cells; Exp. 2, peptide 1 ng/ml, TIL 1200)?
A: 1%

Q: What about the “% specific lysis at E:T = 40:1” value (HLA-A2.1+ T2 cells; Exp. 2, peptide 1 ng/ml, TIL 1235) of the same compound?
A: 2%

Q: And the “% specific lysis at E:T = 40:1” value (HLA-A2.1+ T2 cells; [15])?
A: 99%

Q: And the “% specific lysis at E:T = 40:1” value (HLA-A2.1+ T2 cells; [16])?
A: 37%

Q: And the “% specific lysis at E:T = 40:1” value (HLA-A2.1+ T2 cells; [17])?
A: 9%

Q: And the “% specific lysis at E:T = 40:1” value (HLA-A2.1+ T2 cells; [18])?
A: 5%

Q: And the “TIL that recognize the peptide” value (HLA-A2.1+ T2 cells)?
A: recognized by TIL660 and TIL1143

Q: What about the “binding affinity class to HLA-A2.1” value (HLA-A2.1 [4]) of the same compound?
A: inteivediate

Q: And the “HLA-A2.1 binding, in words” value (HLA-A2.1 [1]; natural epitopes)?
A: not high affinity binders

Q: What about the “% specific lysis by PBL stimulated” value [3] of the same compound?
A: 11%

Q: For CC[C@H](C)[C@H](NC(=O)CNC(=O)[C@H](C)NC(=O)[C@H](C)N)C(=O)NCC(=O)N[C@H](C(=O)N[C@@H](CC(C)C)C(=O)N[C@H](C(=O)N[C@H](C(=O)O)C(C)C)[C@@H](C)O)[C@@H](C)CC [M9-2], which “cytokine secretion (IFN-γ, GM-CSF, TNF-α) by 10 TIL and clone A42” value [5] is on record?
A: secreted cytokines

Q: What about the “Recognition by M9-2 reactive T-cell” value [2] of the same compound?
A: + (+, recognized)
